Here are results for 19 compounds from patent US12187709B2 (Genentech, Inc., priority 2021, dated 2025).

Each structure is given as a SMILES string. Some results are limits rather than exact numbers.

One assay deals with Cbl-b (Homo sapiens (Human), UniProt Q13191). In words: Cbl-b LCK Ub TR-FRET assay (Cbl-b Lck HTRF). The assay is classed as biochemical. The conditions noted are these: for IC50: Cbl-b LCK Ub TR-FRET; for fold-selectivity (Cbl-b over C-cbl) / (fold-selectivity) Cbl-b and C-Cbl Selectivity: ratio C-cbl Lck HTRF IC50 / Cbl-b Lck HTRF IC50. The gist of the method: (§1)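 Signal is read once the detection mix has stood 20 min at ambient temperature. Curves are anchored by DMSO as maximum and by omission of LCK as minimum.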
Sequence of Cbl-b (Q13191 40-426): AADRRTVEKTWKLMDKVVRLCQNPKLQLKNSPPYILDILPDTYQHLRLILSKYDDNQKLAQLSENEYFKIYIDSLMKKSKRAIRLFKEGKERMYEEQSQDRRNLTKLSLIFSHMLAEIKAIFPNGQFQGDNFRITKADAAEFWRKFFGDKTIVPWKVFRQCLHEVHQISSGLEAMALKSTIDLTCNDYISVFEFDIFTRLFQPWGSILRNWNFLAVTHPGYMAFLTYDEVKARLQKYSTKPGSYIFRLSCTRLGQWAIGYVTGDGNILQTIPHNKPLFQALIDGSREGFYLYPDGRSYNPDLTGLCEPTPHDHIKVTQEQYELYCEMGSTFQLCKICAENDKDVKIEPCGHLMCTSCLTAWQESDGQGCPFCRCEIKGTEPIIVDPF
In general terms: Time-resolved FRET reads energy transfer from a long-lived donor to a nearby acceptor.

A further assay addresses c-Cbl (Homo sapiens (Human), UniProt P22681). In words: C-Cbl LCK Ub TR-FRET assay (C-cbl Lck HTRF). The assay is classed as biochemical. An outline of the steps: as §1

Sequence of c-Cbl (P22681 47-435): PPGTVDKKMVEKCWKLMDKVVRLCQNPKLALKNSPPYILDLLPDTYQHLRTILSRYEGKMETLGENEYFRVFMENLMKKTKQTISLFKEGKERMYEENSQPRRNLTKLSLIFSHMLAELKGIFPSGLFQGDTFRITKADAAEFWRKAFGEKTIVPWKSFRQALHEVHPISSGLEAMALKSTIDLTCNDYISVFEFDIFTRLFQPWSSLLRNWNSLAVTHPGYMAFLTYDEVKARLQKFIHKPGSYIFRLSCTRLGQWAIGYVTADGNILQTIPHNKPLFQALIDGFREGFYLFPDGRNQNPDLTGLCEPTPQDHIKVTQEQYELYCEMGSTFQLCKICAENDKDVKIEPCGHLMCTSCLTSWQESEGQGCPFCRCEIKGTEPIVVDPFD

With `Cn1cnnc1[C@@H](C[C@@H]1CCOC1)c1cccc(N2Cc3c(cc(CNC4(C)CCC4)cc3C(F)(F)F)C2=O)c1` [Compound 276, 2-(3-((S)-1-(4-methyl-4H-1,2,4-triazol-3-yl)-2-((R)-tetrahydrofuran-3-yl)ethyl)phenyl)-6-(((1-methylcyclobutyl)amino)methyl)-4-(trifluoromethyl)isoindolin-1-one], at Cbl-b, the IC50 was ≥ 20 µM and the “fold-selectivity (Cbl-b over C-cbl)” value is given as 1.0x. Also, the IC50 against c-Cbl was determined as 20 µM.

`C[C@@H](NC1(C)CCC1)c1cc2c(c(C(F)(F)F)c1)CN(c1cccc(C(c3nncn3C)C3COC3)c1)C2=O` (stereo partly drawn) [Compound 284, 2-(3-((4-methyl-4H-1,2,4-triazol-3-yl)(oxetan-3-yl)methyl)phenyl)-6-((R)-1-((1-methylcyclobutyl)amino)ethyl)-4-(trifluoromethyl)isoindolin-1-one]: at Cbl-b, 0.51 µM corresponded to half-maximal inhibition (IC50) and the “fold-selectivity (Cbl-b over C-cbl)” value is reported as 7.3x. The IC50 on c-Cbl was found to be 3.7 µM.

On to `Cn1cnnc1[C@H](CC1CCS(=O)(=O)CC1)c1cccc(N2Cc3c(cc(CNC4(C)CCC4)cc3C(F)(F)F)C2=O)c1` [Compound 286, (R)-2-(3-(2-(1,1-dioxidotetrahydro-2H-thiopyran-4-yl)-1-(4-methyl-4H-1,2,4-triazol-3-yl)ethyl)phenyl)-6-(((1-methylcyclobutyl)amino)methyl)-4-(trifluoromethyl)isoindolin-1-one], for which the figures for the IC50 at Cbl-b and against c-Cbl were ≥ 20 µM and 20 µM, respectively. In addition, the “fold-selectivity (Cbl-b over C-cbl)” value at Cbl-b is 1.0x.

As to `Cn1cnnc1[C@@H](CC1CCS(=O)(=O)CC1)c1cccc(N2Cc3c(cc(CNC4(C)CCC4)cc3C(F)(F)F)C2=O)c1` [Compound 287, (S)-2-(3-(2-(1,1-dioxidotetrahydro-2H-thiopyran-4-yl)-1-(4-methyl-4H-1,2,4-triazol-3-yl)ethyl)phenyl)-6-(((1-methylcyclobutyl)amino)methyl)-4-(trifluoromethyl)isoindolin-1-one], at Cbl-b, the 50% inhibitory concentration (IC50) is ≥ 20 µM and the “fold-selectivity (Cbl-b over C-cbl)” value turned out to be 1.0x. This compound also yielded an IC50 against c-Cbl of 20 µM.

`Cn1cnnc1[C@@H](c1cccc(N2Cc3c(cc(CNC4(C)CCC4)cc3C(F)(F)F)C2=O)c1)C1CCOCC1` [Compound 290, (R)-2-(3-((4-methyl-4H-1,2,4-triazol-3-yl)(tetrahydro-2H-pyran-4-yl)methyl)phenyl)-6-(((1-methylcyclobutyl)amino)methyl)-4-(trifluoromethyl)isoindolin-1-one]: at Cbl-b, the IC50 stood at 13 µM and the “fold-selectivity (Cbl-b over C-cbl)” value is 1.5x. At c-Cbl, this compound had an IC50 of 20 µM.

For `Cn1cnnc1[C@@H](C[C@@H]1COCCO1)c1cccc(N2Cc3c(cc(CNC4(C)CCC4)cc3C(F)(F)F)C2=O)c1` [Compound 296, 2-(3-((S)-2-((R)-1,4-dioxan-2-yl)-1-(4-methyl-4H-1,2,4-triazol-3-yl)ethyl)phenyl)-6-(((1-methylcyclobutyl)amino)methyl)-4-(trifluoromethyl)isoindolin-1-one], at Cbl-b, inhibition was half-maximal at 8 µM (IC50) and the “fold-selectivity (Cbl-b over C-cbl)” value is given as 2.0x. For the same compound, the IC50 on c-Cbl stood at 16 µM.

On to `Cn1cnnc1[C@@H](c1cccc(N2Cc3c(cc(CNC4(C)CCC4)cc3C(F)(F)F)C2=O)c1)C1CCS(=O)(=O)CC1` [Compound 299, (R)-2-(3-((1,1-dioxidotetrahydro-2H-thiopyran-4-yl)(4-methyl-4H-1,2,4-triazol-3-yl)methyl)phenyl)-6-(((1-methylcyclobutyl)amino)methyl)-4-(trifluoromethyl)isoindolin-1-one], for which the IC50 on Cbl-b was found to be 2.5 µM; on c-Cbl, 3.8 µM. Moreover, at Cbl-b, the “fold-selectivity (Cbl-b over C-cbl)” value stood at 1.5x.

As to `Cn1cnnc1[C@H](c1cccc(N2Cc3c(cc(CNC4(C)CCC4)cc3C(F)(F)F)C2=O)c1)C1CCS(=O)(=O)CC1` [Compound 300, (S)-2-(3-((1,1-dioxidotetrahydro-2H-thiopyran-4-yl)(4-methyl-4H-1,2,4-triazol-3-yl)methyl)phenyl)-6-(((1-methylcyclobutyl)amino)methyl)-4-(trifluoromethyl)isoindolin-1-one], the IC50 is 8.7 µM against Cbl-b and 17 µM against c-Cbl. Moreover, the “fold-selectivity (Cbl-b over C-cbl)” value at Cbl-b was determined as 2.0x.

For `Cn1cnnc1[C@H](c1cccc(N2Cc3c(cc(CNC4(C)CCC4)cc3C(F)F)C2=O)c1)C1COC1` [Compound 304, (S)-4-(difluoromethyl)-2-(3-((4-methyl-4H-1,2,4-triazol-3-yl)(oxetan-3-yl)methyl)phenyl)-6-(((1-methylcyclobutyl)amino)methyl)isoindolin-1-one], at Cbl-b, it took 7.8 µM to reach half-maximal inhibition (IC50) and the “fold-selectivity (Cbl-b over C-cbl)” value amounted to 2.6x. The same compound came in with an IC50 on c-Cbl of 20 µM.

Take `Cn1cnnc1[C@](C)(O)c1cccc(N2Cc3c(cc(CNC4(C)CCC4)cc3C(F)(F)F)C2=O)c1` [Compound 305, (R)-2-(3-(1-hydroxy-1-(4-methyl-4H-1,2,4-triazol-3-yl)ethyl)phenyl)-6-(((1-methylcyclobutyl)amino)methyl)-4-(trifluoromethyl)isoindolin-1-one]: the IC50 at Cbl-b was ≥ 20 µM; against c-Cbl, 20 µM. Further, the “fold-selectivity (Cbl-b over C-cbl)” value on Cbl-b amounted to 1.0x.

As for `Cn1cnnc1[C@](O)(c1cccc(N2Cc3c(cc(CNC4(C)CCC4)cc3C(F)(F)F)C2=O)c1)C(F)(F)F` [Compound 307, (R)-6-(((1-methylcyclobutyl)amino)methyl)-2-(3-(2,2,2-trifluoro-1-hydroxy-1-(4-methyl-4H-1,2,4-triazol-3-yl)ethyl)phenyl)-4-(trifluoromethyl)isoindolin-1-one], at Cbl-b, the IC50 stood at 7.6 µM and the “fold-selectivity (Cbl-b over C-cbl)” value is listed as 1.5x. The compound further gave an IC50 against c-Cbl of 12 µM.

In the case of `CC(C)[C@@](O)(c1cccc(N2Cc3c(cc(CNC4(C)CCC4)cc3C(F)(F)F)C2=O)c1)c1nncn1C` [Compound 309, (R)-2-(3-(1-hydroxy-2-methyl-1-(4-methyl-4H-1,2,4-triazol-3-yl)propyl)phenyl)-6-(((1-methylcyclobutyl)amino)methyl)-4-(trifluoromethyl)isoindolin-1-one], the IC50 against Cbl-b worked out at 5.3 µM; against c-Cbl, 20 µM. At Cbl-b, the “fold-selectivity (Cbl-b over C-cbl)” value is 3.8x.

Consider `CC[C@H](NC1(C)CCC1)c1cc2c(c(C(F)(F)F)c1)CN(c1cccc([C@@H](c3nncn3C)C3COC3)c1)C2=O` [Compound 315, 2-(3-((S)-(4-methyl-4H-1,2,4-triazol-3-yl)(oxetan-3-yl)methyl)phenyl)-6-((S)-1-((1-methylcyclobutyl)amino)propyl)-4-(trifluoromethyl)isoindolin-1-one], for which, on Cbl-b, the midpoint of inhibition, the IC50, lay at 6.8 µM and the “fold-selectivity (Cbl-b over C-cbl)” value is listed as 2.0x. Moreover, inhibition on c-Cbl was half-maximal at 20 µM (IC50).

As for `Cn1cnnc1[C@]1(c2cccc(N3Cc4c(cc(CNC5(C)CCC5)cc4C(F)(F)F)C3=O)c2)C[C@@H](S(C)(=O)=O)C1` [Compound 325, 2-(3-((1r,3r)-1-(4-methyl-4H-1,2,4-triazol-3-yl)-3-(methylsulfonyl)cyclobutyl)phenyl)-6-(((1-methylcyclobutyl)amino)methyl)-4-(trifluoromethyl)isoindolin-1-one], on Cbl-b, it took 11 µM to reach half-maximal inhibition (IC50) and the “fold-selectivity (Cbl-b over C-cbl)” value was determined as 1.9x. On c-Cbl, 20 µM corresponded to half-maximal inhibition (IC50).

Take `Cn1cnnc1[C@]1(c2cccc(N3Cc4c(cc(CNC5(C)CCC5)cc4C(F)(F)F)C3=O)c2)C[C@H](S(C)(=O)=O)C1` [Compound 326, 2-(3-((1s,3s)-1-(4-methyl-4H-1,2,4-triazol-3-yl)-3-(methylsulfonyl)cyclobutyl)phenyl)-6-(((1-methylcyclobutyl)amino)methyl)-4-(trifluoromethyl)isoindolin-1-one]: on Cbl-b, the IC50 was found to be 16 µM and the “fold-selectivity (Cbl-b over C-cbl)” value amounted to 1.2x. For the same compound, the IC50 at c-Cbl is 20 µM.

Turning to `Cn1cnnc1[C@]1(c2cccc(N3Cc4c(cc(CNC5(C)CCC5)cc4C(F)(F)F)C3=O)c2)C[C@H](OC(F)(F)F)C1` [Compound 350, 2-(3-((1s,3s)-1-(4-methyl-4H-1,2,4-triazol-3-yl)-3-(trifluoromethoxy)cyclobutyl)phenyl)-6-(((1 methylcyclobutyl)amino)methyl)-4-(trifluoromethyl)isoindolin-1-one], on Cbl-b, the IC50 was 0.016 µM and the “fold-selectivity (Cbl-b over C-cbl)” value came to 4.8x. The same compound gave an IC50 on c-Cbl of 0.077 µM.

With `CO[C@H]1C[C@](c2cccc(N3Cc4c(cc(CN5CCCCC5)cc4C(F)(F)F)C3=O)c2)(c2nncn2C)C1` [Compound 420, 2-(3-((1r,3r)-3-methoxy-1-(4-methyl-4H-1,2,4-triazol-3-yl)cyclobutyl)phenyl)-6-(piperidin-1-ylmethyl)-4-(trifluoromethyl)isoindolin-1-one], the IC50 on Cbl-b (Example 121) is 0.1 µM; at c-Cbl, 0.72 µM. Moreover, the “(fold-selectivity) Cbl-b and C-Cbl Selectivity” value on Cbl-b amounted to 7.2x.

With `CO[C@H]1C[C@](c2cccc(N3Cc4c(cc(CN5CCC6(CC5)CC(O)C6)cc4C(F)(F)F)C3=O)c2)(c2nncn2C)C1` [Compound 424, 6-((2-hydroxy-7-azaspiro[3.5]nonan-7-yl)methyl)-2-(3-((1r,3r)-3-methoxy-1-(4-methyl-4H-1,2,4-triazol-3-yl)cyclobutyl)phenyl)-4-(trifluoromethyl)isoindolin-1-one], the IC50 was 0.23 µM against Cbl-b (Example 121) and 1.5 µM against c-Cbl. For the same compound, the “(fold-selectivity) Cbl-b and C-Cbl Selectivity” value on Cbl-b worked out at 6.5x.

Turning to `C[C@@H](NC1(C)CCC1)c1cc2c(c(C(F)(F)F)c1)CN(c1cccc([C@@H](c3nncn3C)C3COC3)c1)C2=O` [Compound 443, 2-(3-((S)-(4-methyl-4H-1,2,4-triazol-3-yl)(oxetan-3-yl)methyl)phenyl)-6-((R)-1-((1-methylcyclobutyl)amino)ethyl)-4-(trifluoromethyl)isoindolin-1-one], the IC50 at Cbl-b (Example 121) was determined as 3.3 µM; on c-Cbl it was 5.7 µM. The “(fold-selectivity) Cbl-b and C-Cbl Selectivity” value on Cbl-b was 1.7x.

The IC50 is the concentration needed to halve the response being measured. A lower IC50 goes with higher potency.
